Earlier results on 1 molecule are cited in patent US20110287097A1, “PHARMACEUTICAL COMPOSITIONS COMPRISING ROPINIROLE” (DR. REDDY'S LABORATORIES, INC., priority 2007, published 2011).

Molecules are shown by their SMILES.

In the case of `CCCN(CCC)CCc1cccc2c1CC(=O)N2` [Ropinirole, 4-[2-(dipropylamino)ethyl]-1,3-dihydro-2H-indol-2-one], the “time to peak plasma concentration” value (after administration of an immediate release tablet) is 1 to 2 h. For the setting “in vivo”, the absolute systemic bioavailability was 55% and the “mean plasma elimination half-life” value was “approximately 6 hours”.
